Source: US10227357B2, “Compounds and methods for kinase modulation, and indications therefor” (Plexxikon Inc., priority 2012, dated 2019)

Legend:
c-kit mutant D816V = target: T1, c-kit mutant D816V (Homo sapiens, UniProt P10721, D816V/DEL694-753); experiment: c-Kit mutant D816V biochemical assay, AlphaScreen; settings: c-kit D816V biochemical inhibitory activity; read-out: Biochemical activity (IC50 μM) Kit D816V
T1 construct: residues 551-934, kinase insertion domain residues 694-753 deleted; 6x-histidine (N); made in house; host or cells: E. coli Arctic Express (DE3) RIL (Stratagene)
How it was run: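 Purified His-tagged c-Kit D816V (E. coli-expressed) assayed in 25 mM HEPES pH 7.2 with Mg/Mn, 5% DMSO and 10 μM ATP, 30 min at room temperature, 8-point 1:3 dilutions. Phosphorylation detected by AlphaScreen with streptavidin donor and PY20 acceptor beads; IC50 from signal versus concentration.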

c-kit kinase = target: T2, c-kit kinase (Homo sapiens, UniProt P10721); experiment: c-Kit biochemical assay, AlphaScreen, 10 μM ATP; settings: c-kit biochemical inhibitory activity; read-out: Biochemical activity (IC50 μM) Kit
T2 construct: The c-kit (or kinase domain thereof) is an active kinase in AlphaScreen; poly-Histidine tag (in-house protein only) (cleaved yes); host or cells: E. coli BL21(DE3)RIL, co-expressed with PTP1B
How it was run: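 His-tagged c-Kit expressed in E. coli with co-expressed PTP1B (dephosphorylated), tag removed; 0.1 ng per reaction with biotinylated-peptide substrate in 50 mM HEPES pH 7.2, 5 mM MgCl2, 5 mM MnCl2, 5% DMSO, 10 μM ATP, 1 h at room temperature. Phosphorylation detected by AlphaScreen (streptavidin donor, PY20 acceptor beads); IC50 from 8-point 1:3 dilution series.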

T2 sequence (P10721 26-976): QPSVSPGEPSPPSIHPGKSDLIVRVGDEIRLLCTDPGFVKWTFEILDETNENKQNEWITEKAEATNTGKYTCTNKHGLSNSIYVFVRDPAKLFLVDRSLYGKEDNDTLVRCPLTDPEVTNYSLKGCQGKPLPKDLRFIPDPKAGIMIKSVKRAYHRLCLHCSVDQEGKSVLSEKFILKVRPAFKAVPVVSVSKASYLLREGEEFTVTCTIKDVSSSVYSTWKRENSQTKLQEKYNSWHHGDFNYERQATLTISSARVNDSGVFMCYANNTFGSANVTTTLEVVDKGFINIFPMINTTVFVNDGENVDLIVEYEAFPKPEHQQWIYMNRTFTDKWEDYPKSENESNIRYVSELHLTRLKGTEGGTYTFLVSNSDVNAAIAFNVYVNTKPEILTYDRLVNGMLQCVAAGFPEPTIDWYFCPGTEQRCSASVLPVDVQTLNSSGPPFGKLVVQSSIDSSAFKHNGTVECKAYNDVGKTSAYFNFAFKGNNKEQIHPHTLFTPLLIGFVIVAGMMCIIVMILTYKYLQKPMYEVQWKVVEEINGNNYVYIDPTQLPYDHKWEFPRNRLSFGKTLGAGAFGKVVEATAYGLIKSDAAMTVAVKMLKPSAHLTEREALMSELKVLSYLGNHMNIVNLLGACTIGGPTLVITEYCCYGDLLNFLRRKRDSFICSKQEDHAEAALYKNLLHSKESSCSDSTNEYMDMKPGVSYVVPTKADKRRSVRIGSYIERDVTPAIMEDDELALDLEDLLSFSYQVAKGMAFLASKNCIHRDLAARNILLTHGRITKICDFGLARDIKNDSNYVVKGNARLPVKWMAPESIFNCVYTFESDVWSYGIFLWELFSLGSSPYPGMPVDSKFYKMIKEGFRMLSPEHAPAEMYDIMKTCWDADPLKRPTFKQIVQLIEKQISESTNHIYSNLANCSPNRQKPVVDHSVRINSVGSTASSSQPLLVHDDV
T1 sequence (P10721 with tags, fused parts or gaps DEL694-753/D816V): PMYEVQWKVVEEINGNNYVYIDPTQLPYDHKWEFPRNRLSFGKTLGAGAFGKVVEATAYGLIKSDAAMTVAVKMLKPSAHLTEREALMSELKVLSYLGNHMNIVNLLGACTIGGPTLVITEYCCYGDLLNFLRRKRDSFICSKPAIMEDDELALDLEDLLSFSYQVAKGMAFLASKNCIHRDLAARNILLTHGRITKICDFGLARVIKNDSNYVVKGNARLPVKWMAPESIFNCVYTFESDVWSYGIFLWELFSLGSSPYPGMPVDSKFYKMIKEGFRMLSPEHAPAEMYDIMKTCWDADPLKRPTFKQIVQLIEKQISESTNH

| SMILES | IC50 (c-kit mutant D816V) | IC50 (c-kit kinase) |
| --- | --- | --- |
| Cn1cc(-c2cc3c(N4CCN(c5nc6ccccc6[nH]5)CC4)ncnc3[nH]2)cn1 [P-0010, 4-[4-(1H-benzimidazol-2-yl)piperazin-1-yl]-6-(1-methylpyrazol-4-yl)-7H-pyrrolo[2,3-d]pyrimidine] | 0.0001 to 1 µM | 0.0001 to 1 µM |
| Cc1cc2c(-c3ccc(NS(=O)(=O)c4cccc(Cl)c4F)cc3F)ncnc2[nH]1 [P-0364, 3-chloro-2-fluoro-N-[3-fluoro-4-(6-methyl-7H-pyrrolo[2,3-d]pyrimidin-4-yl)phenyl]benzenesulfonamide] | 10 to 200 µM | 10 to 200 µM |
| Cc1ccc([C@H](C)NC(=O)N2CCN(c3ncnc4[nH]c(-c5ccc(F)cc5)cc34)C[C@H]2C)cc1 [P-0712, (2R)-4-[6-(4-fluorophenyl)-7H-pyrrolo[2,3-d]pyrimidin-4-yl]-2-methyl-N-[(1S)-1-(p-tolyl)ethyl]piperazine-1-carboxamide] | 0.0001 to 1 µM | 10 to 200 µM |
| CS(=O)(=O)Nc1ccc(-c2cc3c(-c4ccc(NS(C)(=O)=O)cc4F)ncnc3[nH]2)c(F)c1 [P-0382, N-[3-fluoro-4-[4-[2-fluoro-4-(methanesulfonamido)phenyl]-7H-pyrrolo[2,3-d]pyrimidin-6-yl]phenyl]methanesulfonamide] | 0.0001 to 1 µM | 0.0001 to 1 µM |
| O=C(NCc1ccc(F)cc1)N1CCN(c2ncnc3cc(C4CCN(C(=O)C5CC5)CC4)sc23)CC1 [P-0588, 4-[6-[1-(cyclopropanecarbonyl)-4-piperidyl]thieno[3,2-d]pyrimidin-4-yl]-N-[(4-fluorophenyl)methyl]piperazine-1-carboxamide] | 0.0001 to 1 µM | 10 to 200 µM |
| CC(C)Oc1ccc(S(=O)(=O)NC2CCN(c3ncnc4[nH]c(-c5cnn(C)c5)cc34)CC2)cc1 [P-0488, 4-isopropoxy-N-[1-[6-(1-methylpyrazol-4-yl)-7H-pyrrolo[2,3-d]pyrimidin-4-yl]-4-piperidyl]benzenesulfonamide] | 0.0001 to 1 µM | 0.0001 to 1 µM |
| O=C(NCc1ccc(F)cc1)N1CCN(c2ncnc3[nH]cc(-c4ccccc4)c23)CC1 [P-0226, N-[(4-fluorophenyl)methyl]-4-(5-phenyl-7H-pyrrolo[2,3-d]pyrimidin-4-yl)piperazine-1-carboxamide] | 10 to 200 µM | 1 to 10 µM |
| O=C(NCc1ccc(F)cc1)N1CCN(c2ncnc3[nH]c(-c4ccncc4)cc23)CC1 [P-0101, N-[(4-fluorophenyl)methyl]-4-[6-(4-pyridyl)-7H-pyrrolo[2,3-d]pyrimidin-4-yl]piperazine-1-carboxamide] | 0.0001 to 1 µM | 1 to 10 µM |
| Cn1cc(-c2cc3c(N4CCC(NS(=O)(=O)c5ccc6c(c5)CCO6)CC4)ncnc3[nH]2)cn1 [P-0457, N-[1-[6-(1-methylpyrazol-4-yl)-7H-pyrrolo[2,3-d]pyrimidin-4-yl]-4-piperidyl]-2,3-dihydrobenzofuran-5-sulfonamide] | 0.0001 to 1 µM | 10 to 200 µM |
| Cc1ccc(S(=O)(=O)Nc2ccc(-c3ncnc4[nH]c(C)cc34)cc2)cc1 [P-0390, 4-methyl-N-[4-(6-methyl-7H-pyrrolo[2,3-d]pyrimidin-4-yl)phenyl]benzenesulfonamide] | 0.0001 to 1 µM | 1 to 10 µM |
| Cc1cc2c(-c3ccc(NS(=O)(=O)c4cccc(OC(F)(F)F)c4)cc3)ncnc2[nH]1 [P-0284, N-[4-(6-methyl-7H-pyrrolo[2,3-d]pyrimidin-4-yl)phenyl]-3-(trifluoromethoxy)benzenesulfonamide] | 1 to 10 µM | 10 to 200 µM |
| CCc1ccc(S(=O)(=O)Nc2ccc(-c3ncnc4[nH]nc(C)c34)cc2)cc1 [P-0442, 4-ethyl-N-[4-(3-methyl-1H-pyrazolo[3,4-d]pyrimidin-4-yl)phenyl]benzenesulfonamide] | 0.0001 to 1 µM | 1 to 10 µM |
| N#Cc1cc2c(N3CCN(C(=O)NCc4ccc(F)cc4)CC3)ncnc2[nH]1 [P-0150, 4-(6-cyano-7H-pyrrolo[2,3-d]pyrimidin-4-yl)-N-[(4-fluorophenyl)rnethyl]piperazine-1-carboxamide] | 10 to 200 µM | 10 to 200 µM |
| Cc1nn(C)cc1-c1cc2c(N3CCN(C(=O)N[C@@H](C)c4ccc(Cl)cc4)[C@H](C)C3)ncnc2[nH]1 [P-0718, (2R)-N-[(1S)-1-(4-chlorophenyl)ethyl]-4-[6-(1,3-dimethylpyrazol-4-yl)-7H-pyrrolo[2,3-d]pyrimidin-4-yl]-2-methyl-piperazine-1-carboxamide] | 0.0001 to 1 µM | 0.0001 to 1 µM |
| Cc1nn(C)cc1-c1cc2ncnc(N3CCN(C(=O)NCc4ccc(F)cc4)CC3)c2s1 [P-0619, 4-[6-(1,3-dimethylpyrazol-4-yl)thieno[3,2-d]pyrimidin-4-yl]-N-[(4-fluorophenyl)methyl]piperazine-1-carboxamide] | 0.0001 to 1 µM | 1 to 10 µM |
| Cc1cc2c(C3=CCC(NS(=O)(=O)c4ccc(Cl)cc4)CC3)ncnc2[nH]1 (stereo not shown) [P-0729, 4-chloro-N-[4-(6-methyl-7H-pyrrolo[2,3-d]pyrimidin-4-yl)cyclohex-3-en-1-yl]benzenesulfonamide] | 0.0001 to 1 µM | 0.0001 to 1 µM |
| COc1ccc(S(=O)(=O)Nc2ccc(-c3ncnc4[nH]c(C)cc34)cc2)cc1 [P-0326, 4-methoxy-N-[4-(6-methyl-7H-pyrrolo[2,3-d]pyrimidin-4-yl)phenyl]benzenesulfonamide] | 1 to 10 µM | 1 to 10 µM |
| COc1ncc(-c2cc3c(N4CCC(NS(=O)(=O)c5ccc(OC(F)(F)F)cc5)CC4)ncnc3[nH]2)cn1 [P-0465, N-[1-[6-(2-methoxypyrimidin-5-yl)-7H-pyrrolo[2,3-d]pyrimidin-4-yl]-4-piperidyl]-4-(trifluoromethoxy)benzenesulfonamide] | 10 to 200 µM | 10 to 200 µM |
| O=C(NCc1cncc(F)c1)N1CCN(c2ncnc3[nH]c(-c4ccc(F)cc4)cc23)CC1 [P-0131, 4-[6-(4-fluorophenyl)-7H-pyrrolo[2,3-d]pyrimidin-4-yl]-N-[(5-fluoro-3-pyridyl)methyl]piperazine-1-carboxamide] | 1 to 10 µM | 1 to 10 µM |
| O=S(=O)(Nc1ccc(Cl)cc1)c1ccc(-c2ncnc3[nH]c(-c4ccc(F)cc4)cc23)c(F)c1 [P-0327, N-(4-chlorophenyl)-3-fluoro-4-[6-(4-fluorophenyl)-7H-pyrrolo[2,3-d]pyrimidin-4-yl]benzenesulfonamide] | 0.0001 to 1 µM | 10 to 200 µM |
| COc1cccc([C@H](C)NC(=O)N2C3CCC2CN(c2ncnc4cc(-c5ccc(F)cc5)sc24)C3)c1 [P-0567, 3-[6-(4-fluorophenyl)thieno[3,2-d]pyrimidin-4-yl]-N-[(1S)-1-(3-methoxyphenyl)ethyl]-3,8-diazabicyclo[3.2.1]octane-8-carboxamide] | 0.0001 to 1 µM | 10 to 200 µM |
| CS(=O)(=O)Nc1ccc(-c2ncnc3[nH]c(-c4ccc(F)cc4)cc23)cc1F [P-0399, N-[2-fluoro-4-[6-(4-fluorophenyl)-7H-pyrrolo[2,3-d]pyrimidin-4-yl]phenyl]methanesulfonamide] | 0.0001 to 1 µM | 0.0001 to 1 µM |
| COc1ccc(S(=O)(=O)NC2CCN(c3ncnc4[nH]ccc34)CC2)cc1 [P-0540, 4-methoxy-N-[1-(7H-pyrrolo[2,3-d]pyrimidin-4-yl)-4-piperidyl]benzenesulfonamide] | 10 to 200 µM | 10 to 200 µM |
| Cc1n[nH]c2ncnc(-c3ccc(NS(=O)(=O)c4ccc(C(F)(F)F)cc4)cc3)c12 [P-0438, N-[4-(3-methyl-1H-pyrazolo[3,4-d]pyrimidin-4-yl)phenyl]-4-(trifluoromethyl)benzenesulfonamide] | 0.0001 to 1 µM | 1 to 10 µM |
| C[C@H](NC(=O)N1CCN(c2ncnc3[nH]c(-c4ccc(F)cc4)cc23)CC1(C)C)c1cccc(Cl)c1 [P-0008, N-[(1S)-1-(3-chlorophenyl)ethyl]-4-[6-(4-fluorophenyl)-7H-pyrrolo[2,3-d]pyrimidin-4-yl]-2,2-dimethyl-piperazine-1-carboxamide] | 0.0001 to 1 µM | 1 to 10 µM |
| Cn1cc(-c2cc3c(C4=CCC(NS(=O)(=O)c5ccc(OC(F)(F)F)cc5)CC4)ncnc3[nH]2)cn1 (stereo not shown) [P-0285, N-[4-[6-(1-methylpyrazol-4-yl)-7H-pyrrolo[2,3-d]pyrimidin-4-yl]cyclohex-3-en-1-yl]-4-(trifluoromethoxy)benzenesulfonamide] | 0.0001 to 1 µM | 1 to 10 µM |
| Cn1cc(-c2cc3c(N4CCN(C(=O)NCc5ccc(Cl)cc5)CC4)ncnc3[nH]2)cn1 [P-0097, N-[(4-chlorophenyl)methyl]-4-[6-(1-methylpyrazol-4-yl)-7H-pyrrolo[2,3-d]pyrimidin-4-yl]piperazine-1-carboxamide] | 0.0001 to 1 µM | 0.0001 to 1 µM |
| COc1ncc(-c2cc3c(N4CCN(C(=O)NCc5ccc(F)cc5)CC4)ncnc3[nH]2)cn1 [P-0106, N-[(4-fluorophenyl)methyl]-4-[6-(2-methoxypyrimidin-5-yl)-7H-pyrrolo[2,3-d]pyrimidin-4-yl]piperazine-1-carboxamide] | 1 to 10 µM | 1 to 10 µM |
| Cc1ccc(S(=O)(=O)Nc2ccc(-c3ncnc4[nH]c(C)c(C)c34)cc2)cc1 [P-0449, N-[4-(5,6-dimethyl-7H-pyrrolo[2,3-d]pyrimidin-4-yl)phenyl]-4-methyl-benzenesulfonamide] | 1 to 10 µM | 1 to 10 µM |
